Results: US12239643B2, “Therapeutic agent for inflammatory diseases, autoimmune diseases, fibrotic diseases, and cancer diseases” (MEIJI SEIKA PHARMA CO., LTD., priority 2018, dated 2025)

Tests used:
[1] = tested on: PDE4; assay: Evaluation of PDE4 inhibitory activity, scintillation proximity assay; type: biochemical; settings: scintillation proximity assay; read-out: PDE4 Inhibitory Activity (Evaluation 1; concentration for the inhibition rate of 50%)
In short: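 SPA with [2,8-3H]-cAMP and diluted PDE4 enzyme preparation in 50 mM Tris-HCl pH 7.4, 8.3 mM MgCl2, 1.7 mM EGTA, 3 mg/mL BSA, 120 min at room temperature. Product captured on ZnSO4-containing YSi-SPA beads, scintillation counted; IC50 from inhibition curves vs DMSO control and no-enzyme blank.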

[2] = Hepatic metabolic stability (rat liver microsome method); type: in vitro ADME; settings: rat liver microsomes 0.5 mg/mL, test substance 1 μM, NADPH 1 mM, 37° C., 30 minutes
Protocol: Metabolic stability in rat liver microsomes was evaluated by the following method. First, in 100 mM of potassium phosphate buffer solution (pH 7.4), liver microsomes (concentration at reaction: 0.5 mg/mL) and the test substance (concentration at reaction: 1 μM) were preincubated at 37° C. Five minutes later, 100 mM of potassium phosphate buffer (pH 7.4) solution of NADPH (concentration at reaction: 1 mM) was mixed thereto to start the reaction. After a predetermined time passed, acetonitrile was mixed to the reaction mixture to stop the reaction. Here, the reaction time was 0 and 30 minutes, and drug concentration measurement was performed for each time period using LC-MS. The % remaining value of the test compound was calculated from the value for 0 minutes and the value for 30 minutes, using the calculation formula below: % Remaining=(Value for 30 Minutes/Value for 0 Minutes)×100
The results of measuring the rat liver microsome metabolic Stability (% remaining for 30-minute reaction) for the test compound by the above method were evaluated in accordance with the following evaluated basis; A: a % remaining rate of 75% or more, B: 60% or more and less than 75%, C: 45% or more and less than 60%, and D: less than 45%.

Row | Structure (SMILES) | IC50 [1] [nM] | Residual ratio (% remaining for 30-minute reaction) [2]
1 | CC(C)(O)C(F)(F)Oc1ccc(-c2ccsn2)c2oc(N3CC4CCC(C3)N4)nc12 [Example 331, 1-((2-(3,8-Diazabicyclo[3.2.1]octan-3-yl)-7-(isothiazol-3-yl)benzo[d]oxazol-4-yl)oxy)-1,1-difluoro-2-methylpropan-2-ol] | < 100 | B (B: 60% or more and less than 75%)
2 | CC(C)(O)C(F)(F)Oc1ccc(-c2ncns2)c2oc(N3CC4CCC(C3)N4)nc12 [Example 327, 1-((2-(3,8-Diazabicyclo[3.2.1]octan-3-yl)-7-(1,2,4-thiadiazol-5-yl)benzo[d]oxazol-4-yl)oxy)-1,1-difluoro-2-methylpropan-2-ol] | < 100 | B (B: 60% or more and less than 75%)
3 | FC(F)(F)C(OCc1nnn[nH]1)c1ccc(-c2nccs2)c2oc(N3CC4CC(C3)N4)nc12 (stereo not drawn) [Example 231, 4-(1-((1H-tetrazol-5-yl)methoxy)-2,2,2-trifluoroethyl)-2-(3,6-diazabicyclo[3.1.1]heptan-3-yl)-7-(thiazol-2-yl)benzo[d]oxazole] | < 100 | A (A: a % remaining rate of 75% or more)
4 | CCC(O)C(F)(F)Oc1ccc(-c2nccs2)c2oc(N3CC4CC(C3)N4)nc12 (stereo not drawn) [Example 395, 1-((2-(3,6-Diazabicyclo[3.1.1]heptan-3-yl)-7-(thiazol-2-yl)benzo[d]oxazol-4-yl)oxy)-1,1-difluorobutan-2-ol] | < 100 | B (B: 60% or more and less than 75%)
5 | CS(=O)(=O)c1ccc(-c2nccs2)c2oc(N3CC4CC(C3)N4)nc12 [Example 347, 2-(3,6-Diazabicyclo[3.1.1]heptan-3-yl)-4-(methylsulfonyl)-7-(thiazol-2-yl)benzo[d]oxazole] | < 100 | A (A: a % remaining rate of 75% or more)
6 | CC(C)(O)C(F)(F)Oc1ccc(-c2ncco2)c2oc(N3CC4CCC(C3)N4)nc12 [Example 321, 1-((2-(3,8-Diazabicyclo[3.2.1]octan-3-yl)-7-(oxazol-2-yl)benzo[d]oxazol-4-yl)oxy)-1,1-difluoro-2-methylpropan-2-ol] | < 100 | A (A: a % remaining rate of 75% or more)
7 | c1cnc(Oc2ccc(-c3nccs3)c3oc(N4CC5CC(C4)N5)nc23)nc1 [Example 338, 2-(3,6-Diazabicyclo[3.1.1]heptan-3-yl)-4-(pyrimidin-2-yloxy)-7-(thiazol-2-yl)benzo[d]oxazole] | < 100 | A (A: a % remaining rate of 75% or more)
8 | CC(C)(O)C(F)(F)Oc1ccc(-c2ncccn2)c2oc(N3CC4CCC(C3)N4)nc12 [Example 330, 1-((2-(3,8-Diazabicyclo[3.2.1]octan-3-yl)-7-(pyrimidin-2-yl)benzo[d]oxazol-4-yl)oxy)-1,1-difluoro-2-methylpropan-2-ol] | < 100 | A (A: a % remaining rate of 75% or more)
9 | CC(O)C(F)(F)Oc1ccc(-c2nccs2)c2oc(N3CC4CC(C3)N4O)nc12 (single isomer, unassigned) [Example 373, 3-(4-(1,1-Difluoro-2-hydroxypropoxy)-7-(thiazol-2-yl)benzo[d]oxazol-2-yl)-3,6-diazabicyclo[3.1.1]heptan-6-ol] | < 100 | B (B: 60% or more and less than 75%)
10 | FC(F)(F)c1ccc(Oc2cc(-c3nccs3)c3oc(N4CC5CC(C4)N5)nc3c2)nc1 [Example 413, 2-(3,6-Diazabicyclo[3.1.1]heptan-3-yl)-7-(thiazol-2-yl)-5-((5-(trifluoromethyl)pyridin-2-yl)oxy)benzo[d]oxazole] | < 100 | A (A: a % remaining rate of 75% or more)
11 | CC(O)(CO)C(F)(F)Oc1ccc(-c2nccs2)c2oc(N3CC4CC(C3)N4)nc12 (single isomer, unassigned) [Example 365, 3-((2-(3,6-Diazabicyclo[3.1.1]heptan-3-yl)-7-(thiazol-2-yl)benzo[d]oxazol-4-yl)oxy)-3,3-difluoro-2-methylpropane-1,2-diol] | < 100 | A (A: a % remaining rate of 75% or more)
12 | Cc1csc(-c2ccc(OC(F)(F)C(C)(C)O)c3nc(N4CC5CC(C4)N5)oc23)n1 [Example 306, 1-((2-(3,6-Diazabicyclo[3.1.1]heptan-3-yl)-7-(4-methylthiazol-2-yl)benzo[d]oxazol-4-yl)oxy)-1,1-difluoro-2-methylpropan-2-ol] | 100 to 1000 | A (A: a % remaining rate of 75% or more)
13 | NC(=O)C(F)(F)Oc1ccc(-c2nccs2)c2oc(N3CC4CC(C3)N4)nc12 [Example 410, 2-((2-(3,6-Diazabicyclo[3.1.1]heptan-3-yl)-7-(thiazol-2-yl)benzo[d]oxazol-4-yl)oxy)-2,2-difluoroacetamide] | < 100 | A (A: a % remaining rate of 75% or more)
14 | OCc1cnc(Oc2ccc(-c3nccs3)c3oc(N4CC5CC(C4)N5)nc23)c(C(F)(F)F)c1 [Example 342, (6-((2-(3,6-Diazabicyclo[3.1.1]heptan-3-yl)-7-(thiazol-2-yl)benzo[d]oxazol-4-yl)oxy)-5-(trifluoromethyl)pyridin-3-yl)methanol] | < 100 | B (B: 60% or more and less than 75%)
15 | OCC(F)(F)Oc1ccc(-c2nccs2)c2oc(N3CC4CC(C3)N4O)nc12 [Example 374, 3-(4-(1,1-Difluoro-2-hydroxyethoxy)-7-(thiazol-2-yl)benzo[d]oxazol-2-yl)-3,6-diazabicyclo[3.1.1]heptan-6-ol] | < 100 | B (B: 60% or more and less than 75%)
16 | CC(O)C(F)(F)Oc1ccc(-c2nccs2)c2oc(N3CC4CC(C3)N4O)nc12 (single isomer, unassigned) [Example 372, 3-(4-(1,1-Difluoro-2-hydroxypropoxy)-7-(thiazol-2-yl)benzo[d]oxazol-2-yl)-3,6-diazabicyclo[3.1.1]heptan-6-ol] | < 100 | B (B: 60% or more and less than 75%)
17 | O=C(NC1CC1)c1ccc(-c2nccs2)c2oc(N3CC4CC(C3)N4)nc12 [Example 357, 2-(3,6-Diazabicyclo[3.1.1]heptan-3-yl)-N-cyclopropyl-7-(thiazol-2-yl)benzo[d]oxazole-4-carboxamide] | < 100 | A (A: a % remaining rate of 75% or more)
18 | OC1CC(Oc2ccc(-c3nccs3)c3oc(N4CC5CC(C4)N5)nc23)C1 (stereo not drawn) [Example 285, 3-((2-(3,6-Diazabicyclo[3.1.1]heptan-3-yl)-7-(thiazol-2-yl)benzo[d]oxazol-4-yl)oxy)cyclobutan-1-ol] | < 100 | A (A: a % remaining rate of 75% or more)
19 | OC1CCN(c2ccc(-c3nccs3)c3oc(N4CC5CC(C4)N5)nc23)CC1 [Example 397, 1-(2-(3,6-Diazabicyclo[3.1.1]heptan-3-yl)-7-(thiazol-2-yl)benzo[d]oxazol-4-yl)piperidin-4-ol] | < 100 | A (A: a % remaining rate of 75% or more)
20 | CC(O)(CO)C(F)(F)Oc1ccc(-c2nccs2)c2oc(N3CC4CC(C3)N4)nc12 (racemic) [Example 326, 3-((2-(3,6-Diazabicyclo[3.1.1]heptan-3-yl)-7-(thiazol-2-yl)benzo[d]oxazol-4-yl)oxy)-3,3-difluoro-2-methylpropane-1,2-diol] | < 100 | A (A: a % remaining rate of 75% or more)
21 | OCC(F)(F)Oc1ccc(-c2nccs2)c2oc(N3CC4CCC(C3)N4)nc12 [Example 404, 2-((2-(3,8-Diazabicyclo[3.2.1]octan-3-yl)-7-(thiazol-2-yl)benzo[d]oxazol-4-yl)oxy)-2,2-difluoroethan-1-ol] | < 100 | B (B: 60% or more and less than 75%)
22 | [O-][S+](CCO)c1ccc(-c2nccs2)c2oc(N3CC4CC(C3)N4)nc12 (stereo not drawn) [Example 349, 2-((2-(3,6-Diazabicyclo[3.1.1]heptan-3-yl)-7-(thiazol-2-yl)benzo[d]oxazol-4-yl)sulfinyl)ethan-1-ol] | < 100 | A (A: a % remaining rate of 75% or more)
23 | NC(=O)c1ccc(-c2nccs2)c2oc(N3CC4CC(C3)N4)nc12 [Example 354, 2-(3,6-Diazabicyclo[3.1.1]heptan-3-yl)-7-(thiazol-2-yl)benzo[d]oxazole-4-carboxamide] | < 100 | A (A: a % remaining rate of 75% or more)
24 | C[S+]([O-])c1ccc(-c2nccs2)c2oc(N3CC4CC(C3)N4)nc12 (stereo not drawn) [Example 346, 2-(3,6-Diazabicyclo[3.1.1]heptan-3-yl)-4-(methylsulfinyl)-7-(thiazol-2-yl)benzo[d]oxazole] | < 100 | A (A: a % remaining rate of 75% or more)
